Results on nine molecules are retold here after patent US6521619B2, “Aryl phenylcyclopropyl sulfide derivatives and their use as cell adhesion inhibiting anti-inflammatory and immune suppressive agents” (Icos Corporation, priority 2000, dated 2003).

Test [1] has as its system JY-8 cells (expressing LFA-1) adhering to immobilized ICAM-1. Kind of test: ICAM-1/JY-8 Cell Adhesion Assay (46B). Type of test: cell-based, human. Particulars: JY-8 cell adhesion to ICAM-1; for inhibition at 4 µM / inhibition at 1 µM / inhibition at 2 µM: Homo sapiens; for inhibition at 4 µM: @ 4 μM compound; for inhibition at 1 µM: @ 1 μM compound (cell); for inhibition at 2 µM / % inhibition: @ 2 μM compound (cell). The procedure: Biologically relevant activity of the compounds in this invention was confirmed using a cell-based adhesion assay, (described below as assay 46B) which measured the ability of the present compounds to block the adherence of JY-8 cells (a human EBV-transformed B cell line expressing LFA-1 on its surface) to immobilized ICAM-1.
46B. ICAM-1 /JY-8 Cell Adhesion Assay
For measurement of inhibitory activity in the cell-based adhesion assay, 96-well microtiter plates are coated with 70 μL of recombinant ICAM-1/g (ICOS Corporation) at a concentration of 5 μg/mL in D-PBS w/o Ca^++ or Mg^++ overnight at 4° C. The wells are then washed twice with D-PBS and blocked by addition of 200 μL of D-PBS, 5% fish skin gelatin by incubation for 1 hour at room temperature. Fluorescent tagged JY-8 cells (a human EBV-transformed B cell line expressing LFA-1 on its surface; 50 μL at 2×10^6 cells/ml in RPMI 1640 (standard cell culture medium)/1% fetal bovine serum) are added to the wells. For fluorescent labeling of JY-8 cells, 5×10^6 cells washed once in RPMI 1640 are resuspended in 1 mL of RPMI 1640 containing 2 μM Calceiun AM (MolecularProbes), are incubated at 37° C for 30 minutes and washed once with RPMI-1640/1% fetal bovine serum. Dilutions of compounds to be assayed for ICAM-1/LFA-1 antagonistic activity are prepared in RPMI-1640/1% fetal bovine serum from 10 mM stock solutions in DMSO and 50 μL are added to duplicate wells. Microtiter plates are incubated for 45 minutes at room temperature and the wells are washed gently once with RPMI-1640/1% fetal bovine serum. Fluorescent intensity is measured in a fluorescent plate reader with an excitation wavelength at 485 nm and an emission wavelength at 530 nm. The percent inhibition of a candidate compound at a given concentration is calculated using the following equation: [formula]
and these concentration/inhibition data are used to generate dose response curves, from which IC50 values are derived.

Test [2] has as its target T1, ICAM-1/LFA-1 interaction (recombinant LFA-1, biotinylated recombinant ICAM-1/Ig) (Homo sapiens, UniProt P20701).
T1 construct: Recombinant LFA-1 (100 mL of 0.7 mg/ml, ICOS Corporation) in D-PBS is then added to each well
As to the kind of experiment: ICAM-1/LFA-1 Biochemical Interaction Assay (46A). Format: binding. Particulars: for inhibition at 2 µM: read-out: % inhibition. The procedure:
Compounds that antagonize the interaction between ICAM-1 and LFA-1 can be identified, and their activities quantitated, using both biochemical and cell-based adhesion assays. A primary biochemical assay, described below as assay 46A, was utilized to measure the ability of the present compounds to block the interaction between the integrin LFA-1 and its adhesion partner ICAM-1.
46A. ICAM-1/LFA-1 Biochemical Interaction Assay
In the biochemical assay, 100 mL of anti-LFA-1 antibody (ICOS Corporation) at a concentration of 5 mg/ml in Dulbecco's phosphate-buffered saline (D-PBS) is used to coat wells of a 96-well microtiter plate overnight at 4° C. The wells are then washed twice with wash buffer (D-PBS w/o Ca^++ or Mg^++, 0.05% Tween 20) and blocked by addition of 200 mL of D-PBS, 5% fish skin gelatin. Recombinant LFA-1 (100 mL of 0.7 mg/ml, ICOS Corporation) in D-PBS is then added to each well. Incubation continues for 1 hour at room temperature and the wells are washed twice with wash buffer. Serial dilutions of compounds being assayed as ICAM-1/LFA-1 antagonists, prepared as 10 mM stock solutions in dimethyl sulfoxide (DMSO), are diluted in D-PBS, 2 mM MgCl2, 1% fish skin gelatin and 50 mL of each dilution added to duplicate wells. This is followed by addition of […] of 0.8 mg/ml biotinylated recombinant ICAM-1/Ig (ICOS Corporation) to the wells and the plates are incubated at room temperature for 1 hour The wells are then washed twice with wash buffer and 100 mL of Europium-labeled Streptavidin (Wallac Oy) diluted 1:100 in Delfia assay buffer (Wallac Oy) are added to the wells. Incubation proceeds for 1 hour at room temperature. […] Incubation proceeds for 5 minutes with constant mixing.
where “background” refers to wells that are not coated with anti-LFA-1 antibody.

T1 sequence (P20701 26-1170): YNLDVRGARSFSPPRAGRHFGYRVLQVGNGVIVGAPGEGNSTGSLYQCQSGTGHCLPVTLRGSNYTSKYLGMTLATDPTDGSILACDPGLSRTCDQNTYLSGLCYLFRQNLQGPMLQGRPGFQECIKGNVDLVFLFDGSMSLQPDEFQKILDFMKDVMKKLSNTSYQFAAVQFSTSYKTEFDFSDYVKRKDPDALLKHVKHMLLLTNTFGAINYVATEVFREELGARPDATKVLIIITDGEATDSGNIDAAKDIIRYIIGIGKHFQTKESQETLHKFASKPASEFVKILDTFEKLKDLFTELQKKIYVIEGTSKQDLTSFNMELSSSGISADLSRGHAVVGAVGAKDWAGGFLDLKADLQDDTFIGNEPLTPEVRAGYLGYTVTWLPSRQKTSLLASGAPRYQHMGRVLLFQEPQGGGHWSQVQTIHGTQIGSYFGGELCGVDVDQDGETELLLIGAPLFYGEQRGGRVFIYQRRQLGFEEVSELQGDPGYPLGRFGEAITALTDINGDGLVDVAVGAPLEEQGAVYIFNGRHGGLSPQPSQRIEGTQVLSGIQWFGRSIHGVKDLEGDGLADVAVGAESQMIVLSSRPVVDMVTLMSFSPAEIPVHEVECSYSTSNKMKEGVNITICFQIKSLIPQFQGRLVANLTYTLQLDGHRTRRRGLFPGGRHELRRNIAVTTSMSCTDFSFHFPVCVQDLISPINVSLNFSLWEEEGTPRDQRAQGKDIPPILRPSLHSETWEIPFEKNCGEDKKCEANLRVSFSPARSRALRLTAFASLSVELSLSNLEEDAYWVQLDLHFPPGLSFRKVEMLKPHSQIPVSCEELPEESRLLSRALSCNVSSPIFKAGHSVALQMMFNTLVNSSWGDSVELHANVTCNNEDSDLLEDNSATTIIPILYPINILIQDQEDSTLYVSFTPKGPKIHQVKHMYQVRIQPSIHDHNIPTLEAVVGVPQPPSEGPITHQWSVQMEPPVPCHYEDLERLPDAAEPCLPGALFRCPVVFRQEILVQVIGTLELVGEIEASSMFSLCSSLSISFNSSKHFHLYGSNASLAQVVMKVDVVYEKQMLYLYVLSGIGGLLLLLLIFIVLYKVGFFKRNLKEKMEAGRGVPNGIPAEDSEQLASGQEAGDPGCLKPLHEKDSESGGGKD
T1 sequence (P05107 23-769 partner): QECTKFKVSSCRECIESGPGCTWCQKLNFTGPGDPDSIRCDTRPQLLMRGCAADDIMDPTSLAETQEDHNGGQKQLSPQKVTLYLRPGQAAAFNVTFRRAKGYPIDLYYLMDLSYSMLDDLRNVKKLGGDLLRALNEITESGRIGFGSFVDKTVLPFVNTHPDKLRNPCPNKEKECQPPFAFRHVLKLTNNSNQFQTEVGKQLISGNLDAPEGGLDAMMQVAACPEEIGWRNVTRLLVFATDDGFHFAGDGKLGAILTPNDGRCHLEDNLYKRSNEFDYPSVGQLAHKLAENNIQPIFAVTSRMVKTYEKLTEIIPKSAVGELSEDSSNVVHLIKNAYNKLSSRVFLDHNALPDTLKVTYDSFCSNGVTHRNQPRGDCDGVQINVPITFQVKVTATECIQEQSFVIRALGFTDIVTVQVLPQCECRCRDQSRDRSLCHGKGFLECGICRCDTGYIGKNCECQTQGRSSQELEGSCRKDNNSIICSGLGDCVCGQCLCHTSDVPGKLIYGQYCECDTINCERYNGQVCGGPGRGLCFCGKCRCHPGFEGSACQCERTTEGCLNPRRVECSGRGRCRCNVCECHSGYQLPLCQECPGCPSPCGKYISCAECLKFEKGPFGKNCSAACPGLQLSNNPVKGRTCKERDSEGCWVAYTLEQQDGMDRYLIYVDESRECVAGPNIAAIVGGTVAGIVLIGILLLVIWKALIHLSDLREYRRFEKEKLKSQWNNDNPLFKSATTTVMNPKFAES

By inhibition is commonly meant the percentage by which the read-out fell short of the control. For `O=C(NCCCN1CCCC1=O)C1CC1c1ccc(Sc2ccccc2N2CCOCC2)c(Cl)c1` (racemic) [Example 8, (±)-(2-Morpholin-1-ylphenyl)[2-chloro-4-(trans-(2-((3-(1-pyrrolidin-2-onyl)-prop-1-ylamino)carbonyl)cycloprop-1-yl)phenyl]sulfide], the inhibition at 4 µM was 70% in test [1] and 94% in test [2] (@ 4 μM compound). Also, the inhibition at 2 µM in test [2] (@ 2 μM compound) was 94%.
With `O=C(NCCCN1CCCC1=O)C1CC1c1ccc(Sc2ccccc2N2CCCCC2)c(C(F)(F)F)c1` (racemic) [Example 9, (±)-(2-Piperidin-1-ylphenyl)[2-trifluoromethyl-4-(trans-(2-((3-(1-pyrrolidin-2-onyl)-prop-1-ylamino)carbonyl)cycloprop1-yl)phenyl]sulfide], the inhibition at 4 µM in test [1] turned out to be 76%; in test [2] (@ 4 μM compound), 95%.
In test [1], `CN(CCCN1CCCC1=O)C(=O)C1CC1c1ccc(Sc2ccccc2N2CCOCC2)c(C(F)(F)F)c1` (racemic) [Example 13, (±)-(2-Morpholin-1-ylphenyl)[2-trifluoromethyl-2-(trans-(2-((3-(1-pyrrolidin-2-onyl)-propyl-N-methylamino)carbonyl)cycloprop-1-yl)phenyl]sulfide] yielded an inhibition at 1 µM of 86%. In addition, the inhibition at 4 µM in test [2] (@ 4 μM compound) amounted to 93%.
For `O=C(NCCCN1CCCC1=O)C1CC1c1ccc(Sc2ccccc2Br)c(Cl)c1Cl` (racemic) [Example 14, (±)-(2-Bromophenyl)[2,3-dichloro-4-(trans-(2-((3-(1-pyrrolidin-2-onyl)-prop-1-ylamino)carbonyl)cycloprop-1-yl)phenyl]sulfide], in that order: 80% and 92%.
In the case of `CC(C)c1ccccc1Sc1ccc(C2CC2C(=O)NCCC(=O)O)c(Cl)c1Cl` (racemic) [Example 16, (±)-(2-Isopropylphenyl)[2,3-dichloro-4-(trans-(2-(2-carboxyethylamino)carbonyl)cycloprop-1-yl)phenyl]sulfide], the inhibition at 2 µM came to 88% in test [1] and 96% in test [2] (@ 2 μM compound).
For `CC(C)c1ccccc1Sc1ccc(C2CC2C(=O)N2CCC(C(=O)O)CC2)c(Cl)c1Cl` (racemic) [Example 18, (±)-(2-Isopropylphenyl)[2,3-dichloro-4-(trans-(2-(4-carboxypiperidin-1-yl)carbonyl)cycloprop-1-yl)phenyl]sulfide], in that order: 84% and 93%.
The corresponding values for `CC(=O)N1CCN(C(=O)C2CC2c2ccc(Sc3ccccc3C(C)C)c(Cl)c2Cl)CC1` (racemic) [Example 21, (±)-(2-Isopropylphenyl)[2,3-dichloro-4-(trans-(2-(4-acetylpiperazin-1-yl)carbonyl)cycloprop-1-yl)phenyl]sulfide] are 88% and 94%.
Consider “(±)-(2-Piperidin-1-ylphenyl)[2-trifluoromethyl-4-(trans-(2-((3-(1-pyrrolidin-2-onyl)-prop-1-ylamino)carbonyl)cycloprop1-yl)phenyl]sulfide [Example 9]”, for which the “% inhibition” value is 89% @ 2 μM in test [1] and 97% @ 2 μM in test [2] (@ 2 μM compound).
Consider “(±)-(3-Morpholin-1-ylphenyl)[2-trifluoromethyl-4-(trans-(2-((3-(1-pyrrolidin-2-onyl)-prop-1-ylamino)carbonyl)cycloprop-1-yl)phenyl]sulfide [Example 11]”, for which the “% inhibition” value in test [1] was 86% @ 2 μM; in test [2] (@ 4 μM compound) it was 96% @ 4 μM.
